Test results as given in PubChem BioAssay (NCI).
Where “and” joins values, the source holds several entries; their conditions need not be identical. Equal entries are not always repeated.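 Compound exposure: 48 hours, 5 concentrations, 96-well plates. GI50 = concentration required for 50% inhibition of growth. Definition used: TGI = concentration required for complete inhibition of growth.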

What was measured:
Experiment in all cases: NCI-60 cell line screen, 48 h
[1] = system: MCF7 breast
[2] = system: CCRF-CEM leukemia
[3] = system: OVCAR-4 ovarian
[4] = system: ACHN renal
[5] = system: COLO 205 colon
[6] = system: A549 NSCLC
[7] = system: HT29 colon
[8] = system: NCI-H522 lung
[9] = system: NCI-H226 lung
[10] = system: K-562 leukemia

Cc1ccc(S(=O)(=O)Nc2cccc3[nH]c(C(F)(F)F)nc23)cc1
GI50 [1]: 0.389 µM
TGI [1]: > 54.5 µM
GI50 [2]: 1.16 µM
TGI [2]: > 100 µM
GI50 [3]: 1.54 µM
TGI [3]: 80.9 µM
GI50 [4]: 0.799 µM
TGI [4]: > 60.6 µM
GI50 [5]: 0.387 µM
TGI [5]: 10.7 µM
GI50 [6]: 0.653 µM
TGI [6]: > 45.8 µM
GI50 [7]: 0.351 µM
TGI [7]: 7.31 µM
GI50 [8]: 0.15 µM
TGI [8]: 0.696 µM
GI50 [9]: 3.73 µM
TGI [9]: 29.1 µM
GI50 [10]: 0.269 µM
TGI [10]: > 100 µM

COc1c2c(nc3ccccc13)-c1cc3c(c(=O)n1C2)COC(=O)C3(O)CC(=O)N1CCOCC1 (stereo not given)
TGI [1]: > 44.4 µM
TGI [2]: 3.95 µM
TGI [3]: > 100 µM
TGI [4]: 14.7 µM
TGI [5]: > 86.5 µM
TGI [6]: > 92.4 µM
TGI [7]: 68 µM
TGI [8]: 31.4 µM
TGI [9]: 22.9 µM
TGI [10]: > 100 µM

O=C(Nc1cccc(NC(=O)Nc2cc(C(F)(F)F)ccc2Cl)c1)Nc1cc(C(F)(F)F)ccc1Cl
GI50 [1]: 0.516 µM
TGI [1]: 32.9 µM
GI50 [2]: 3.21 µM
TGI [2]: 71.7 µM
GI50 [3]: 0.746 µM
TGI [3]: 3.61 µM
GI50 [4]: 0.983 µM
TGI [4]: 11.2 µM
GI50 [5]: 3.44 µM
TGI [5]: > 100 µM
GI50 [6]: 1.95 µM
TGI [6]: 15.8 µM
GI50 [7]: 4.26 µM
TGI [7]: 66.1 µM
GI50 [8]: 1.21 µM
TGI [8]: 7.78 µM
GI50 [9]: 1.85 µM
TGI [9]: 9.28 µM
GI50 [10]: 2.17 µM
TGI [10]: 44.7 µM

CS[C@]12C(=O)C[C@@]3(C)[C@@H](CC[C@]3(O)C(=O)CO)[C@@H]1CCC1=CC(=O)CC[C@@]12C
TGI [1]: > 100 µM
TGI [2]: > 100 µM
TGI [3]: > 100 µM
TGI [4]: > 100 µM
TGI [5]: > 100 µM
TGI [6]: > 100 µM
TGI [7]: > 100 µM
TGI [8]: > 100 µM
TGI [9]: > 100 µM
TGI [10]: > 100 µM

CC[N+]1(C)CCC(O)(c2ccc(Cl)c(Cl)c2)C(C(=O)c2ccc(Cl)c(Cl)c2)C1 (stereo not given)
TGI [1]: > 10 µM
TGI [2]: 5.98 µM
TGI [3]: > 10 µM
TGI [4]: > 10 µM
TGI [5]: > 10 µM
TGI [6]: > 10 µM
TGI [7]: > 10 µM
TGI [8]: 7.44 µM
TGI [9]: > 10 µM
TGI [10]: > 10 µM

COc1ccc(C(=O)c2cc3c(N)c(C(=O)Nc4cccc5ccccc45)sc3nc2C)cc1
GI50 [1]: 0.191 µM
TGI [1]: > 50 µM
GI50 [2]: 0.199 µM
TGI [2]: > 50 µM
GI50 [3]: 1.15 µM
TGI [3]: > 50 µM
GI50 [4]: 0.364 µM
TGI [4]: > 50 µM
GI50 [5]: 0.209 µM
TGI [5]: > 13.3 µM
GI50 [6]: 0.266 µM
TGI [6]: > 50 µM
GI50 [7]: 0.183 µM
TGI [7]: > 50 µM
GI50 [8]: 0.226 µM
TGI [8]: > 50 µM
GI50 [9]: 0.332 µM
TGI [9]: > 50 µM
GI50 [10]: 0.163 µM
TGI [10]: > 50 µM

Cc1c2c(nn1C)CSCc1cc(n(C)n1)CSc1cc(c3ccccc3c1)OCCCc1c(C(=O)O)n(C)c3c-2c(Cl)ccc13
GI50 [1]: 0.575 µM
TGI [1]: 11.3 µM
GI50 [2]: 1.73 µM
TGI [2]: 10.6 µM
GI50 [3]: 6.76 µM
TGI [3]: 22.9 µM
GI50 [4]: 4.1 µM
TGI [4]: 14 µM
GI50 [5]: 3.36 µM
TGI [5]: 12.2 µM
GI50 [6]: 4.38 µM
TGI [6]: 15.6 µM
GI50 [7]: 3.32 µM
TGI [7]: 12.6 µM
GI50 [8]: 1.9 µM
TGI [8]: 8.01 µM
GI50 [9]: 4.4 µM
TGI [9]: 23.2 µM
GI50 [10]: 3.78 µM
TGI [10]: 16.8 µM

C=C1C(=O)OC2C1C(OC(=O)/C(C)=C/C)CC(O)(CCl)C1C(O)C3OC3(C)C21O (stereo not given)
TGI [1]: > 50 µM
TGI [2]: > 50 µM
TGI [3]: > 50 µM
TGI [4]: > 50 µM
TGI [5]: 41.9 µM
TGI [6]: > 50 µM
TGI [7]: > 50 µM
TGI [8]: 10.2 µM
TGI [9]: > 50 µM
TGI [10]: > 50 µM

CCOc1cc2ncc(C#N)c(Nc3ccc(OCc4ccccn4)c(Cl)c3)c2cc1NC(=O)/C=C/CN(C)C
GI50 [1]: 1.65 µM and 0.927 µM
TGI [1]: 3.22 µM and > 6 µM
GI50 [2]: 1.3 µM and 2.44 µM
TGI [2]: 4.95 µM and > 6.11 µM
GI50 [3]: 0.49 µM and 0.48 µM
TGI [3]: 2.44 µM and > 10 µM
GI50 [4]: 0.0358 µM and 0.0817 µM
TGI [4]: 4.14 µM and > 10 µM
GI50 [5]: 1.04 µM and 0.598 µM
TGI [5]: 24.7 µM and > 5.21 µM
GI50 [6]: 0.371 µM and 0.377 µM
TGI [6]: 1.94 µM and > 10 µM
GI50 [7]: 0.491 µM and 0.502 µM
TGI [7]: 2.05 µM and 2.62 µM
GI50 [8]: < 0.01 µM and 0.00351 µM
TGI [8]: 0.0818 µM and 0.706 µM
GI50 [9]: 6.06 µM and 1.69 µM
TGI [9]: 26.7 µM and > 7.67 µM
GI50 [10]: 1.41 µM and 0.606 µM
TGI [10]: 3.27 µM and 3.36 µM

Cn1cc(C2=C(c3cccc(OCC(O)CO)c3)C(=O)NC2=O)c2ccccc21 (stereo not given)
GI50 [1]: > 25 µM
TGI [1]: > 25 µM
GI50 [2]: > 25 µM
TGI [2]: > 25 µM
GI50 [3]: > 25 µM
TGI [3]: > 25 µM
GI50 [4]: > 25 µM
TGI [4]: > 25 µM
GI50 [5]: > 25 µM
TGI [5]: > 25 µM
GI50 [6]: > 25 µM
TGI [6]: > 25 µM
GI50 [7]: > 25 µM
TGI [7]: > 25 µM
GI50 [8]: > 25 µM
TGI [8]: > 25 µM
GI50 [9]: > 25 µM
TGI [9]: > 25 µM
GI50 [10]: > 25 µM
TGI [10]: > 25 µM

COc1cc(/C=C2\Sc3scc(-c4cccc([N+](=O)[O-])c4)[n+]3C2=O)cc(OC)c1OC
TGI [1]: 13.7 µM
TGI [2]: 90.6 µM
TGI [3]: 31.5 µM
TGI [4]: 28.1 µM
TGI [5]: 15.1 µM
TGI [6]: 54.3 µM
TGI [7]: 41.2 µM
TGI [8]: 27.3 µM
TGI [9]: 34.3 µM
TGI [10]: > 100 µM

COc1cc(C(=O)NC2CCN(C)CC2)c(F)cc1Nc1ncc2c(n1)N(C1CCCC1)CC(F)(F)C(=O)N2C
GI50 [1]: < 0.01 µM
TGI [1]: 11.9 µM
GI50 [2]: < 0.01 µM
TGI [2]: 3.58 µM
GI50 [3]: 0.396 µM
TGI [3]: 14.1 µM
GI50 [4]: < 0.0378 µM
TGI [4]: 14.4 µM
GI50 [5]: < 0.01 µM
TGI [5]: 0.177 µM
GI50 [6]: < 0.0184 µM
TGI [6]: 2.31 µM
GI50 [7]: < 0.01 µM
TGI [7]: 11.1 µM
GI50 [8]: < 0.01 µM
TGI [8]: < 0.0208 µM
GI50 [9]: 2.64 µM
TGI [9]: 18.7 µM
GI50 [10]: < 0.01 µM
TGI [10]: 4 µM

COc1ccc(/C=C2\CCCC3=C2NC(N)=NC3c2ccc(OC)c(OC)c2)cc1OC (stereo not given)
GI50 [1]: 1.89 µM
TGI [1]: > 100 µM
GI50 [2]: 2.42 µM
TGI [2]: > 100 µM
GI50 [3]: 5.2 µM
TGI [3]: > 100 µM
GI50 [4]: 4.14 µM
TGI [4]: > 76.2 µM
GI50 [5]: 4.8 µM
TGI [5]: > 100 µM
GI50 [6]: 33.2 µM
TGI [6]: > 100 µM
GI50 [7]: 7.75 µM
TGI [7]: > 100 µM
GI50 [8]: 7 µM
TGI [8]: 36.8 µM
GI50 [9]: 3.02 µM
TGI [9]: 20.2 µM
GI50 [10]: 6.17 µM
TGI [10]: > 100 µM

CC1=C(CO)C(=O)O[C@@H]([C@@H](C)[C@H]2CC[C@H]3[C@@H]4C[C@@H](O)[C@@]5(O)CC=CC(=O)[C@]5(C)[C@H]4CC[C@]23C)C1
TGI [1]: > 100 µM
TGI [2]: > 100 µM
TGI [3]: > 100 µM
TGI [4]: 75.2 µM
TGI [5]: > 100 µM
TGI [6]: > 100 µM
TGI [7]: > 100 µM
TGI [8]: 30.7 µM
TGI [9]: > 100 µM
TGI [10]: > 100 µM
